Measurements as given in patent US20260184691A1, “INHIBITORS AND DEGRADERS OF PIP4K PROTEIN” (Larkspur Biosciences, Inc., priority 2022, published 2026).

What follows are molecules tested against T1, endogenous PIP4K2C C-terminally tagged with HiBiT peptide in MOLT-4 cells (Homo sapiens, UniProt Q8TBX8) (assay: HiBiT PIP4K2C degradation assay in MOLT-4 cells). Details: 24 hours, 10-point dose response, top concentration 10 micromolar, read-out: HiBIT-degradation MOLT4 PIP4k2C 24 hours DC50.
T1 construct: to C-terminally tag endogenous PIP4K2C with HiBiT peptide; host or cells: MOLT-4 (CRISPR-Cas9 knock-in clone)
T1 sequence (Q8TBX8 1-421): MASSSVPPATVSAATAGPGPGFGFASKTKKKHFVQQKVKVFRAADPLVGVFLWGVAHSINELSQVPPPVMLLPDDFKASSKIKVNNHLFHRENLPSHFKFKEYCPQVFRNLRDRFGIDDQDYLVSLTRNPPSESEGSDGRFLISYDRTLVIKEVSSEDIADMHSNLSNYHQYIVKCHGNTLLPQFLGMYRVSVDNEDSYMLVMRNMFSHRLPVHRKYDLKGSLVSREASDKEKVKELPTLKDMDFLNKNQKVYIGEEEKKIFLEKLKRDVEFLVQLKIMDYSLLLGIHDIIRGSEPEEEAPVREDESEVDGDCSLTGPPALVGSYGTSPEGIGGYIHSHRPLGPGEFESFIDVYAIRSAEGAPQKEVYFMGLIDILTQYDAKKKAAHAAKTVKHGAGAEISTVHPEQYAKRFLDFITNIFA
Type: cell-based
Procedure: Following clonal selection, genotype was confirmed by Sanger sequencing. […] Nano-Glo® HiBiT Lytic Assay System was purchased from Promega (Madison, WI, Catalog number N3030). Cell culture flasks and 384-well microplates were purchased from Corning (Glendale, AZ).
To study PIP4K2C degradation, 384-well plates were plated with a 10-point dose response curve, 3-fold dilution, in duplicate with a top starting concentration of 10 micromolar. Subsequently 22,500 cells were added to each well and incubated at 37C in 5% CO2 for 24 hours. At the end of the incubation time, cells were treated with the Nano-Glo® HiBiT Lytic Detection System following the manufacturer's instructions. Luminescence was measured with a PHERAstar FSX plate reader (BMG Labtech, Cary, NC). The Levenberg-Marquardt algorithm was used to fit a Hill equation to dose-response data to calculate DC50 values (see Table 6).

**Q.** For `O=C1CCC(N2C(=O)c3cccc(OCCCN4CCN(CCCCCC(=O)Nc5cncc(Nc6ncc(Cl)c(-c7cccc(-c8ccccc8)c7)n6)c5)CC4)c3C2=O)C(=O)N1` (stereo not drawn) [Compound 68, N-(5-((4-([1,1′-biphenyl]-3-yl)-5-chloropyrimidin-2-yl)amino)pyridin-3-yl)-6-(4-(3-((2-(2,6-dioxopiperidin-3-yl)-1,3-dioxoisoindolin-4-yl)oxy)propyl)piperazin-1-yl)hexanamide], which DC50 is on record?
**A.** < 500 nM

**Q.** Which DC50 does the source give for `O=C1CCC(Nc2ccc(C3CCN(CC(=O)N4CCC5(CC4)CCN(c4cncc(Nc6ncc(Cl)c(N7CCC[C@@H](O)C7)n6)c4)C5=O)CC3)cc2)C(=O)N1` (stereo partly drawn) [Compound 170, 3-((4-(1-(2-(2-(5-((5-chloro-4-((R)-3-hydroxypiperidin-1-yl)pyrimidin-2-yl)amino)pyridin-3-yl)-1-oxo-2,8-diazaspiro[4.5]decan-8-yl)-2-oxoethyl)piperidin-4-yl)phenyl)amino)piperidine-2,6-dione] here?
**A.** < 500 nM

**Q.** For `O=C1CCC(N2C(=O)c3ccc(OCCCCCCCC(=O)N4CCC5(CC4)CCN(c4cncc(Nc6ncc(Cl)c(-c7cccc(-c8ccccc8)c7)n6)c4)C5=O)cc3C2=O)C(=O)N1` (stereo not drawn) [Compound 73, 5-((8-(2-(5-((4-([1,1′-biphenyl]-3-yl)-5-chloropyrimidin-2-yl)amino)pyridin-3-yl)-1-oxo-2,8-diazaspiro[4.5]decan-8-yl)-8-oxooctyl)oxy)-2-(2,6-dioxopiperidin-3-yl)isoindoline-1,3-dione], which DC50 is on record?
**A.** < 500 nM

**Q.** How did the DC50 turn out when `CC(=O)N1CCCC(n2cc(-c3nc(Nc4cncc(N5CCC6(CCN(C(=O)CN7CCC(c8ccc(NC9CCC(=O)NC9=O)cc8)CC7)CC6)C5=O)c4)ncc3Cl)cn2)C1` (stereo not drawn) [Compound 197, 3-((4-(1-(2-(2-(5-((4-(1-(1-acetylpiperidin-3-yl)-1H-pyrazol-4-yl)-5-chloropyrimidin-2-yl)amino)pyridin-3-yl)-1-oxo-2,8-diazaspiro[4.5]decan-8-yl)-2-oxoethyl)piperidin-4-yl)phenyl)amino)piperidine-2,6-dione] was run?
**A.** < 500 nM

**Q.** Which DC50 does the source give for `O=C1CCC(N2Cc3cc(OCCCCCCCCC(=O)N4CCC5(CC4)CCN(c4cncc(Nc6ncc(Cl)c(-c7cccc(-c8ccccc8)c7)n6)c4)C5=O)ccc3C2=O)C(=O)N1` (stereo not drawn) [Compound 62, 3-(5-((9-(2-(5-((4-([1,1′-biphenyl]-3-yl)-5-chloropyrimidin-2-yl)amino)pyridin-3-yl)-1-oxo-2,8-diazaspiro[4.5]decan-8-yl)-9-oxononyl)oxy)-1-oxoisoindolin-2-yl)piperidine-2,6-dione] here?
**A.** < 500 nM

**Q.** `O=C1CCC(N2C(=O)c3cccc(OCCCCCCCC(=O)N4CCC5(CC4)CCN(c4cncc(Nc6ncc(Cl)c(-c7cccc(-c8ccccc8)c7)n6)c4)C5=O)c3C2=O)C(=O)N1` (stereo not drawn) [Compound 79, 4-((8-(2-(5-((4-([1,1′-biphenyl]-3-yl)-5-chloropyrimidin-2-yl)amino)pyridin-3-yl)-1-oxo-2,8-diazaspiro[4.5]decan-8-yl)-8-oxooctyl)oxy)-2-(2,6-dioxopiperidin-3-yl)isoindoline-1,3-dione] was tested. Which DC50 did it give?
**A.** < 500 nM

**Q.** For `O=C1CCC(Nc2ccc(C3CCN(CC(=O)N4CCC5(CC4)CCN(c4cncc(Nc6ncc(Cl)c(-c7cccc(N8CCCCC8)c7)n6)c4)C5=O)CC3)cc2)C(=O)N1` (stereo not drawn) [Compound 185, 3-[4-[1-[2-[2-[5-[[5-chloro-4-[3-(1-piperidyl)phenyl]pyrimidin-2-yl]amino]-3-pyridyl]-1-oxo-2,8-diazaspiro[4.5]decan-8-yl]-2-oxo-ethyl]-4-piperidyl]anilino]piperidine-2,6-dione], which DC50 is on record?
**A.** < 500 nM

**Q.** How did the DC50 turn out when `O=C1CCC(N2C(=O)c3ccc(OCCCCCCC(=O)N4CCC5(CC4)CCN(c4cncc(Nc6ncc(Cl)c(-c7cccc(-c8ccccc8)c7)n6)c4)C5=O)cc3C2=O)C(=O)N1` (stereo not drawn) [Compound 74, 5-((7-(2-(5-((4-([1,1′-biphenyl]-3-yl)-5-chloropyrimidin-2-yl)amino)pyridin-3-yl)-1-oxo-2,8-diazaspiro[4.5]decan-8-yl)-7-oxoheptyl)oxy)-2-(2,6-dioxopiperidin-3-yl)isoindoline-1,3-dione] was run?
**A.** < 500 nM

**Q.** `O=C1CCC(Nc2ccc(C3CCN(CCN4CCC5(CC4)CCN(c4cncc(Nc6ncc(Cl)c(-c7cccc(C8CC8)c7)n6)c4)C5=O)CC3)cc2)C(=O)N1` (stereo not drawn) [Compound 211, 3-((4-(1-(2-(2-(5-((5-chloro-4-(3-cyclopropylphenyl)pyrimidin-2-yl)amino)pyridin-3-yl)-1-oxo-2,8-diazaspiro[4.5]decan-8-yl)ethyl)piperidin-4-yl)phenyl)amino)piperidine-2,6-dione] was tested. Which DC50 did it give?
**A.** < 500 nM

**Q.** `O=C1CCC(N2C(=O)c3cccc(OCCCCCCCCC(=O)N4CCC5(CC4)CCN(c4cncc(Nc6ncc(Cl)c(-c7cccc(-c8ccccc8)c7)n6)c4)C5=O)c3C2=O)C(=O)N1` (stereo not drawn) [Compound 78, 4-((9-(2-(5-((4-([1,1′-biphenyl]-3-yl)-5-chloropyrimidin-2-yl)amino)pyridin-3-yl)-1-oxo-2,8-diazaspiro[4.5]decan-8-yl)-9-oxononyl)oxy)-2-(2,6-dioxopiperidin-3-yl)isoindoline-1,3-dione] was tested. Which DC50 did it give?
**A.** 500 to 1000 nM

**Q.** Which DC50 does the source give for `O=C1CCC(N2Cc3cc(OCCCCCCCCCN4CCC5(CC4)CCN(c4cncc(Nc6ncc(Cl)c(-c7cccc(-c8ccccc8)c7)n6)c4)C5=O)ccc3C2=O)C(=O)N1` (stereo not drawn) [Compound 53, 3-(5-((9-(2-(5-((4-([1,1′-biphenyl]-3-yl)-5-chloropyrimidin-2-yl)amino)pyridin-3-yl)-1-oxo-2,8-diazaspiro[4.5]decan-8-yl)nonyl)oxy)-1-oxoisoindolin-2-yl)piperidine-2,6-dione] here?
**A.** < 500 nM

**Q.** With `O=C1CCC(Nc2ccc(C3CCN(C(=O)CN4CCC5(CC4)CCN(c4cncc(Nc6ncc(Cl)c(-c7cccc(C8CC8)c7)n6)c4)C5=O)CC3)cc2)C(=O)N1` (stereo not drawn) [Compound 200, 3-((4-(1-(2-(2-(5-((5-chloro-4-(3-cyclopropylphenyl)pyrimidin-2-yl)amino)pyridin-3-yl)-1-oxo-2,8-diazaspiro[4.5]decan-8-yl)acetyl)piperidin-4-yl)phenyl)amino)piperidine-2,6-dione] as the molecule, how does the DC50 read?
**A.** < 500 nM

**Q.** With `O=C1CCC(N2Cc3cc(NCCCCC(=O)N4CCC5(CC4)CCN(c4cncc(Nc6ncc(Cl)c(-c7cccc(-c8ccccn8)c7)n6)c4)C5=O)ccc3C2=O)C(=O)N1` (stereo not drawn) [Compound 195, 3-(5-((5-(2-(5-((5-chloro-4-(3-(pyridin-2-yl)phenyl)pyrimidin-2-yl)amino)pyridin-3-yl)-1-oxo-2,8-diazaspiro[4.5]decan-8-yl)-5-oxopentyl)amino)-1-oxoisoindolin-2-yl)piperidine-2,6-dione] as the molecule, how does the DC50 read?
**A.** < 500 nM

**Q.** For `O=C1CCC(Nc2ccc(N3CCC(CN4CCC5(CC4)CCN(c4cncc(Nc6ncc(Cl)c(N7CCCC(C8CC8)C7)n6)c4)C5=O)CC3)cc2)C(=O)N1` (stereo not drawn) [Compound 212, 3-((4-(4-((2-(5-((5-chloro-4-(3-cyclopropylpiperidin-1-yl)pyrimidin-2-yl)amino)pyridin-3-yl)-1-oxo-2,8-diazaspiro[4.5]decan-8-yl)methyl)piperidin-1-yl)phenyl)amino)piperidine-2,6-dione], which DC50 is on record?
**A.** < 500 nM

**Q.** Which DC50 does the source give for `Cn1c(=O)n(C2CCC(=O)NC2=O)c2cc(OCC(=O)NCCCCCCCCCC(=O)Nc3cncc(Nc4ncc(Cl)c(-c5cccc(-c6ccccc6)c5)n4)c3)ccc21` (stereo not drawn) [Compound 51, N-(5-((4-([1,1′-biphenyl]-3-yl)-5-chloropyrimidin-2-yl)amino)pyridin-3-yl)-10-(2-((3-(2,6-dioxopiperidin-3-yl)-1-methyl-2-oxo-2,3-dihydro-1H-benzo[d]imidazol-5-yl)oxy)acetamido)decanamide] here?
**A.** 1000 to 5000 nM

**Q.** Which DC50 does the source give for `O=C1CCC(N2Cc3c(OCCCCCCCCC(=O)N4CCC5(CC4)CCN(c4cncc(Nc6ncc(Cl)c(-c7cccc(-c8ccccc8)c7)n6)c4)C5=O)cccc3C2=O)C(=O)N1` (stereo not drawn) [Compound 71, 3-(4-((9-(2-(5-((4-([1,1′-biphenyl]-3-yl)-5-chloropyrimidin-2-yl)amino)pyridin-3-yl)-1-oxo-2,8-diazaspiro[4.5]decan-8-yl)-9oxononyl)oxy)-1-oxoisoindolin-2-yl)piperidine-2,6-dione] here?
**A.** < 500 nM

**Q.** `O=C(COc1ccc2c3c(cccc13)C(=O)N2C1CCC(=O)NC1=O)NCCCCCCCCCC(=O)Nc1cncc(Nc2ncc(Cl)c(-c3cccc(-c4ccccc4)c3)n2)c1` (stereo not drawn) [Compound 167, N-(5-((4-([1,1′-biphenyl]-3-yl)-5-chloropyrimidin-2-yl)amino)pyridin-3-yl)-10-(2-((1-(2,6-dioxopiperidin-3-yl)-2-oxo-1,2-dihydrobenzo[cd]indol-6-yl)oxy)acetamido)decanamide] was tested. Which DC50 did it give?
**A.** < 500 nM

**Q.** For `O=C(COc1ccc2c(c1)C(=O)N(C1CCC(=O)NC1=O)C2=O)NCCCCCCCCCC(=O)Nc1cncc(Nc2ncc(Cl)c(-c3cccc(-c4ccccc4)c3)n2)c1` (stereo not drawn) [Compound 59, N-(5-((4-([1,1′-biphenyl]-3-yl)-5-chloropyrimidin-2-yl)amino)pyridin-3-yl)-10-(2-((2-(2,6-dioxopiperidin-3-yl)-1,3-dioxoisoindolin-5-yl)oxy)acetamido)decanamide], which DC50 is on record?
**A.** 500 to 1000 nM
